Results on two compounds are retold here after US11739054B2 (priority 2017, dated 2023).

In experiment [1] the test system is Swiss Webster mice. It counts as in vivo. Conditions: Example 4; hapten conjugated to TT, 75 μg with 50 μg CpG + 750 μg Alhydrogel/alum, s.c. days 0, 14, 28.
The test system of experiment [2] is Swiss Webster mice. Put plainly: METH-induced locomotor activity assay in vaccinated mice. It counts as in vivo. Conditions: Example 4; vaccinated mice challenged with METH. The method, then:
On day 42, vaccinated mice were assessed in a locomotion assay by acclimating them for 1 h in a plastic cage (10.5 in.×19 in.×8 in.) with clear ventilated acrylic top. Mice were then quickly removed and injected with saline or 0.5, 1, 2, or 4 mg/kg METH before being returned to their cages; cages were wiped down with dry paper towels to remove excess debris while mice were being injected. The mice were then returned to the cage to be recorded and tracked by overhead camera using ANY-Maze video tracking software (Stoelting Co., Wood Dale, Ill.). Sessions were run during the middle of the dark cycle in a 4.6×4.6 m^2 room with a single 30 W upward-directed light source, and then repeated on mice after a two-day washout period until all mice received all MA doses. Distance traveled (m) and time spent immobile (s; 80% pixel consistency for at least 5 s threshold) were measured and analyzed via Prism 6 software, using a two-way repeated-measures ANOVA with Bonferroni posthoc corrected comparisons. Significance was set at a=0.05 and data is represented as mean±SEM.
The mice were monitored for swelling, redness or formation of granulomas at the injection site. The mice were bled on days 21 and 42. The anti-METH IgG antibody titers were determined by ELISA. On day 45, mice were given a 2 mg/kg dose of METH and their locomotor activity was monitored.

Experiment [3] has as its system Swiss Webster mice. The conditions noted are these: mouse, in vivo, sc.

Turning to `CN[C@@H](CCC(=O)NCCCCCCC(=O)O)Cc1ccccc1` [I-66], in experiment [1], the “anti-METH antibody titers (ELISA)” value is “at least comparable to, and possibly greater than, the MH-6 hapten”. In addition, the METH-induced locomotor activity result in experiment [2] is “worked as well as, and possibly better than, MH-6”.

For TT: tetanus toxoid scaffold protein, in experiment [3], the immune response result is “potent immune responses”.
